According to patent US20140296288A1, “IMINO-SUGAR C-GLYCOSIDES, PREPARATION AND USE THEREOF” (UNIVERSITE PIERRE ET MARIE CURIE (PARIS 6), priority 2011, published 2014):
Read-outs that look alike come from different tables or passages of the source.

How the values were obtained:
[1] = system: α-N-acetylglucosaminidase (NAGLU); test: Enzyme activation assay, MPS IIIB fibroblasts GM02931; assay type: cell-based, human; details: 3 days, 0-10 μM
Protocol: (§1) Compounds (1) and (B) (compound (B) is described in A. Vasella, Helvetica Chimica Acta, 1998, 865) were tested in 3 Sanfillipo patient-derived fibroblast cell lines, named as MPS IIIB fibroblast cells lines below.
(§2) MPS IIIB fibroblasts (GM01426, GM02931 and GM00737) were cultured in the presence of various concentrations of compounds (1) and (B) (0-10 μM) for 3 days before α-N-acetylglucosaminidase (NAGLU) activity was measured in cell homogenates using 4-methylumbelliferyl-α-N-acetylglucosamine (4-MU-α-GlcNAc) as substrate. Cells were washed twice in phosphate buffered saline, homogenised in water using a small dounce homogeniser, centrifuged at 800 g for 5 min and the supernatant taken for protein and enzyme activity. Protein concentration was determined using the BCA assay (Pierce, UK) according to manufacturer's instructions. An aliquot, (5 μl) of homogenate was added to a well of a 96-well plate containing 10 μl 2 mM 4-MU substrate (in water) and 5 μl 0.2 M sodium acetate buffer, pH 4.3. Following incubation for 3-4 h at 37° C. in a humidified incubator, the reaction was stopped by adding 300 μl 0.5 M glycine/NaOH, pH 10.3 and the fluorescence measured at 460 nm using an excitation wavelength of 350 nm, em 460 nm. Enzyme activation is defined as the fold increase in fluorescence due to enzyme activity (FU/μg protein) in treated cells compared to untreated cells. […]

[2] = system: α-N-acetylglucosaminidase (NAGLU); test: Enzyme activation assay, MPS IIIB fibroblasts GM01426; assay type: cell-based, human; details: 3 days, 0-10 μM
Protocol: as §1, §2

[3] = system: α-N-acetylglucosaminidase (NAGLU); test: Enzyme activation assay, MPS IIIB fibroblasts GM00737; assay type: cell-based, human; details: 3 days, 0-10 μM
Protocol: as §1, §2

[4] = target: β-glucosidase; test: In vitro glycosidase inhibition, β-glucosidase (almond); assay type: biochemical
Protocol: (§3) All glycosidases and p-nitrophenyl glycosides were purchased from Sigma-Aldrich Co. The enzyme assays were performed according to the methods described in Kato, A.; Miyauchi, S.; Kato, N.; Nash, R. J.; Yoshimura, Y.; Nakagome, I.; Hirono, S.; Takahata, H.; Adachi, I. Bioorg. Med. Chem. 19, 3558-3568, 2011. The activities were determined using an appropriate p-nitrophenyl glycoside as substrate at the optimum pH of each enzyme. The reaction mixture contained 2 mM of the substrate and the appropriate amount of enzyme. The reaction was stopped by adding 2 mL of 400 mM Na2CO3. The released p-nitrophenol was measured spectrometrically at 400 nm.

[5] = target: T1, α-N-acetyl galactosaminidase (Gallus gallus, UniProt Q90744); test: In vitro glycosidase inhibition, α-N-acetyl galactosaminidase (chicken liver); assay type: biochemical
T1 construct: purchased Sigma-Aldrich Co; host or cells: chicken liver
T1 sequence (Q90744 1-405): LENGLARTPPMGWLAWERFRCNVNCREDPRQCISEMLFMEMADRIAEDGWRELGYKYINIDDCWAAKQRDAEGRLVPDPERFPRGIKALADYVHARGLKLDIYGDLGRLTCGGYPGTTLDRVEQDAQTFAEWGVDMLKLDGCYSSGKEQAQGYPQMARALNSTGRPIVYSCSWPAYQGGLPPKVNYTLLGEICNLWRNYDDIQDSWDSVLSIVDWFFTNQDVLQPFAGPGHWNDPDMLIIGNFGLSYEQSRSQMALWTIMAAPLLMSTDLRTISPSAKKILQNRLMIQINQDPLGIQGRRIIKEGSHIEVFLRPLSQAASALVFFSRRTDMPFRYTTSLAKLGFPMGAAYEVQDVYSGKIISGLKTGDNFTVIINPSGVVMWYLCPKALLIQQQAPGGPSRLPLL
Protocol: as §3

[6] = target: β-glucosidase; test: In vitro glycosidase inhibition, β-glucosidase (bovine liver); assay type: biochemical
Protocol: as §3

[7] = target: T2, α-glucosidase (Oryza sativa subsp. japonica, UniProt Q653V7); test: In vitro glycosidase inhibition, α-glucosidase (rice); assay type: biochemical
T2 construct: purchased Sigma-Aldrich Co
Protocol: as §3

[8] = system: β-N-acetyl hexosaminidase; test: In vitro glycosidase inhibition, β-N-acetyl hexosaminidase (human placenta); assay type: biochemical; details: for selectivity of inhibitory activity towards β-N-acetyl hexosaminidase: versus the other glycosidases of Table 1; for IC50: β-N-acetyl hexosaminidase, human placenta
Protocol: as §3

[9] = target: β-mannosidase; test: In vitro glycosidase inhibition, β-mannosidase (snail); assay type: biochemical
Protocol: as §3

[10] = target: rat intestinal maltase; test: In vitro glycosidase inhibition, α-glucosidase (rat intestinal maltase); assay type: biochemical
Protocol: as §3

[11] = target: β-N-acetyl hexosaminidase; test: In vitro glycosidase inhibition, β-N-acetyl hexosaminidase (bovine kidney); assay type: biochemical
Protocol: as §3

[12] = system: β-galactosidase; test: In vitro glycosidase inhibition, β-galactosidase (bovine liver); assay type: biochemical
Protocol: as §3

[13] = target: T3, α-glucosidase (Saccharomyces cerevisiae, UniProt P53341); test: In vitro glycosidase inhibition, α-glucosidase (yeast); assay type: biochemical
T3 construct: purchased Sigma-Aldrich Co
Protocol: as §3

[14] = target: T4, α-mannosidase (Canavalia ensiformis, UniProt C0HJB3); test: In vitro glycosidase inhibition, α-mannosidase (jack beans); assay type: biochemical
T4 construct: purchased Sigma-Aldrich Co
T4 sequence (C0HJB3 1-981): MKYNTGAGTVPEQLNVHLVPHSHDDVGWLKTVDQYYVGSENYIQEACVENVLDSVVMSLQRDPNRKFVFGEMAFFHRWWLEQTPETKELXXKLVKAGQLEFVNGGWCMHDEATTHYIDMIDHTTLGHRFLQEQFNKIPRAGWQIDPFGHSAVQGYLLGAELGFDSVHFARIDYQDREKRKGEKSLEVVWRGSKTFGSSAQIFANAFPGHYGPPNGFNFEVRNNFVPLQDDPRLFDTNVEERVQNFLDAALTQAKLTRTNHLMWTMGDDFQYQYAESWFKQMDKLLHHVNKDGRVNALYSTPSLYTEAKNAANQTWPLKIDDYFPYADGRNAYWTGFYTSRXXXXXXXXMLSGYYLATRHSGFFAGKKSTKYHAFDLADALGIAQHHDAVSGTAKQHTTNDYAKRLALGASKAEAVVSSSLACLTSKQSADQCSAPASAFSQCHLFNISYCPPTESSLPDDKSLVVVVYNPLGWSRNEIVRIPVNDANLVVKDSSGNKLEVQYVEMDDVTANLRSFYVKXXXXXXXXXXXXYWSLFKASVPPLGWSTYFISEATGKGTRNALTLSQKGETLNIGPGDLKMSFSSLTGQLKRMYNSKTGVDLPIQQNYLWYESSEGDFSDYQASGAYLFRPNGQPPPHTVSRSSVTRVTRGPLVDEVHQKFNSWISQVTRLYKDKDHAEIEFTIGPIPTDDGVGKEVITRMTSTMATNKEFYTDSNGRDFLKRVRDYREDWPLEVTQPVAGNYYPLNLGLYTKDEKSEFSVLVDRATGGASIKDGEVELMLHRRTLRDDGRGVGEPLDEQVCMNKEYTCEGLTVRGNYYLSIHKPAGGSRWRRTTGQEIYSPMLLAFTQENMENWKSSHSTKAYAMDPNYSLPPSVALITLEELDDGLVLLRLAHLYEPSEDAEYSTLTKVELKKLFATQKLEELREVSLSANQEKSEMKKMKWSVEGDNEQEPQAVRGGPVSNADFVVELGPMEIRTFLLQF
Protocol: as §3

[15] = target: T5, α-galactosidase (Coffea arabica, UniProt Q42656); test: In vitro glycosidase inhibition, α-galactosidase (coffee beans); assay type: biochemical
T5 construct: purchased Sigma-Aldrich Co
Protocol: as §3

[16] = 1000 μM, read-out: % of inhibition at 1000 μM
[17] = read-out: % of inhibition at 1000 μM

T3 sequence (P53341 whole entry): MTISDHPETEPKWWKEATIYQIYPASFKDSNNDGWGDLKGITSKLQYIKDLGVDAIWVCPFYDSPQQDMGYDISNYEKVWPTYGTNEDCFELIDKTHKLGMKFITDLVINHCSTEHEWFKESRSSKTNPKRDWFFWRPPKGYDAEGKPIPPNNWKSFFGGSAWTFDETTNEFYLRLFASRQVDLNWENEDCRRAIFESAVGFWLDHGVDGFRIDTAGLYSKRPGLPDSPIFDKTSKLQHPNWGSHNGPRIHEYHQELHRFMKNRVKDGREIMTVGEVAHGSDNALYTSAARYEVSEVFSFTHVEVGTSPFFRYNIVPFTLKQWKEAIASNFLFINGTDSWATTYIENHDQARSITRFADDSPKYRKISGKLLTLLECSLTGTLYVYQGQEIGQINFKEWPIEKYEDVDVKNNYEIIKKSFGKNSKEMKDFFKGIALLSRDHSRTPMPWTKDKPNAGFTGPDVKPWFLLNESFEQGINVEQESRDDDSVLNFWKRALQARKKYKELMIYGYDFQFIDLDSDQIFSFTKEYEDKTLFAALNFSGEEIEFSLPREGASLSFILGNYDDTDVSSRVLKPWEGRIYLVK
T2 sequence (Q653V7 34-885): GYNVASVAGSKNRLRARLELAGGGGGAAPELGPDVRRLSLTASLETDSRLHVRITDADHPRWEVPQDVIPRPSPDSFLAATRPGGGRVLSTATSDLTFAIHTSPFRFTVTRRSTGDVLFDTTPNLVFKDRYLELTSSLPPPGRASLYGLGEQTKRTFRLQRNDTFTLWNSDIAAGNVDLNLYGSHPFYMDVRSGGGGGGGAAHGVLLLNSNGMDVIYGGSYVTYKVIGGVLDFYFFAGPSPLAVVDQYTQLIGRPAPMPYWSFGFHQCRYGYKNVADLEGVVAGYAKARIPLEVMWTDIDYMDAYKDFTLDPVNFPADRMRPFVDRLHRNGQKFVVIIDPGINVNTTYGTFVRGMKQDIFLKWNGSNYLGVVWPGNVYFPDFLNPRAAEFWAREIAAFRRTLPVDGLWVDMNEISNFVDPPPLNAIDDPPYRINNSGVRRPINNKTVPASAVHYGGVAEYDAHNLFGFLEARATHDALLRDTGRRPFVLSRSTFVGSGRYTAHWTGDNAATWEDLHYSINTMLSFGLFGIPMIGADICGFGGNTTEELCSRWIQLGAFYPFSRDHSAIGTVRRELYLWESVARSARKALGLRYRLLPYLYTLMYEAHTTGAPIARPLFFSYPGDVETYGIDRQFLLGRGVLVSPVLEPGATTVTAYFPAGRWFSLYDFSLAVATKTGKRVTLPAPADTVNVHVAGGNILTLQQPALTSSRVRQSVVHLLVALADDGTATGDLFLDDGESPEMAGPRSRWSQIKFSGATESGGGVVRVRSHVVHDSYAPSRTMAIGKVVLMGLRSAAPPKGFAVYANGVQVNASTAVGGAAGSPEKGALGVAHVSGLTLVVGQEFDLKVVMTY
T5 sequence (Q42656 16-378): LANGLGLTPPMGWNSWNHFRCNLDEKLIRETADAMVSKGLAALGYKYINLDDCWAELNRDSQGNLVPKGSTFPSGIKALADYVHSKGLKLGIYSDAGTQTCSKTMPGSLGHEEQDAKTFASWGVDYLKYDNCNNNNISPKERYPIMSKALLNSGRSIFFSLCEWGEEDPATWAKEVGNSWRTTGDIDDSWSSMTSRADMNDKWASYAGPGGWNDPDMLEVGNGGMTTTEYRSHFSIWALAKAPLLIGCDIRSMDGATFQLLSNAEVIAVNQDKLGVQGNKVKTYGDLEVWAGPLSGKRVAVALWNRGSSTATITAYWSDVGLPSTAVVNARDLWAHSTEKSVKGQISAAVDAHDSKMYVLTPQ

**Q.** What does the source list for “N-((2R,3R,4R,5S,6S)-3,4-dihydroxy-2,6-bis(hydroxymethyl)piperidin-5-yl)acetamide [Compound 1]”?
**A.** NAGLU enzyme activation, result in words [1]: activation at lower concentrations; NAGLU enzyme activation, result in words [2]: concentration dependent increase up to 1 μM; NAGLU enzyme activation (fold increase in FU/μg protein vs untreated cells) ([2]; best activation seen): 2.4 fold; NAGLU enzyme activation, result in words [3]: activation at lower concentrations

**Q.** For `CC(=O)N[C@@H]1[C@@H](O)[C@H](O)[C@@H](CO)N[C@@H]1CO` [Compound 1, N-((2R,3R,4R,5S,6S)-3,4-dihydroxy-2,6-bis(hydroxymethyl)piperidin-5-yl)acetamide], which IC50 [4] is on record?
**A.** NI (No Inhibition (less than 50% inhibition at 1000 μM))

**Q.** And the “% of inhibition at 1000 μM” value [4]?
**A.** 5.0%

**Q.** And the inhibition at 1000 µM [5, 16]?
**A.** 42.4%

**Q.** And the inhibition at 1000 µM ([5]; read-out: IC50)?
**A.** < 50%

**Q.** What about the IC50 [6] of the same compound?
**A.** NI (No Inhibition (less than 50% inhibition at 1000 μM))

**Q.** And the “% of inhibition at 1000 μM” value [6]?
**A.** 4.4%

**Q.** And the inhibition at 1000 µM [7, 16]?
**A.** 32.3%

**Q.** And the inhibition at 1000 µM ([7]; read-out: IC50)?
**A.** < 50%

**Q.** And the “selectivity of inhibitory activity towards β-N-acetyl hexosaminidase” value [8]?
**A.** selective inhibitory activity

**Q.** And the IC50 [8]?
**A.** 56 µM

**Q.** And the IC50 [9]?
**A.** NI (No Inhibition (less than 50% inhibition at 1000 μM))

**Q.** And the “% of inhibition at 1000 μM” value [9]?
**A.** 1.9%

**Q.** And the IC50 [10]?
**A.** NI (No Inhibition (less than 50% inhibition at 1000 μM))

**Q.** And the “% of inhibition at 1000 μM” value [10]?
**A.** 26.7%

**Q.** And the IC50 [11]?
**A.** 67 µM

**Q.** What about the “% of inhibition at 1000 μM” value [12] of the same compound?
**A.** 5.0%

**Q.** What about the inhibition at 1000 µM [13, 17] of the same compound?
**A.** 18.5%

**Q.** What about the inhibition at 1000 µM ([13]; read-out: IC50) of the same compound?
**A.** < 50%

**Q.** What about the inhibition at 1000 µM [14, 16] of the same compound?
**A.** 2.3%

**Q.** And the inhibition at 1000 µM ([14]; read-out: IC50)?
**A.** < 50%

**Q.** And the inhibition at 1000 µM [15, 16]?
**A.** 19.7%

**Q.** What about the inhibition at 1000 µM ([15]; read-out: IC50) of the same compound?
**A.** < 50%

**Q.** For `CC(=O)N[C@@H]1[C@@H](O)[C@H](O)[C@@H](CO)N[C@H]1CO` [1′, N-((2R,3R,4R,5S,6R)-3,4-dihydroxy-2,6-bis(hydroxymethyl)piperidin-5-yl)acetamide], which IC50 [4] is on record?
**A.** NI (No Inhibition (less than 50% inhibition at 1000 μM))

**Q.** What about the “% of inhibition at 1000 μM” value [4] of the same compound?
**A.** 18.3%

**Q.** And the inhibition at 1000 µM [5, 16]?
**A.** 42.7%

**Q.** What about the inhibition at 1000 µM ([5]; read-out: IC50) of the same compound?
**A.** < 50%

**Q.** What about the IC50 [6] of the same compound?
**A.** NI (No Inhibition (less than 50% inhibition at 1000 μM))

**Q.** And the “% of inhibition at 1000 μM” value [6]?
**A.** 15.5%

**Q.** And the inhibition at 1000 µM [7, 16]?
**A.** 15.9%

**Q.** And the inhibition at 1000 µM ([7]; read-out: IC50)?
**A.** < 50%

**Q.** What about the “selectivity of inhibitory activity towards β-N-acetyl hexosaminidase” value [8] of the same compound?
**A.** selective inhibitory activity

**Q.** What about the IC50 [8] of the same compound?
**A.** 72 µM

**Q.** What about the IC50 [9] of the same compound?
**A.** NI (No Inhibition (less than 50% inhibition at 1000 μM))

**Q.** And the “% of inhibition at 1000 μM” value [9]?
**A.** 0%

**Q.** And the IC50 [10]?
**A.** NI (No Inhibition (less than 50% inhibition at 1000 μM))

**Q.** What about the “% of inhibition at 1000 μM” value [10] of the same compound?
**A.** 1.3%

**Q.** What about the IC50 [11] of the same compound?
**A.** 65 µM

**Q.** What about the “% of inhibition at 1000 μM” value [12] of the same compound?
**A.** 5.7%

**Q.** What about the inhibition at 1000 µM [13, 17] of the same compound?
**A.** 15.4%

**Q.** And the inhibition at 1000 µM ([13]; α-glucosidase, yeast, read-out: IC50)?
**A.** < 50%

**Q.** And the inhibition at 1000 µM [14, 16]?
**A.** 0%

**Q.** And the inhibition at 1000 µM ([14]; read-out: IC50)?
**A.** < 50%

**Q.** What about the inhibition at 1000 µM [15, 16] of the same compound?
**A.** 13.1%

**Q.** And the inhibition at 1000 µM ([15]; read-out: IC50)?
**A.** < 50%
